Assay results taken from patent US20050090453A1, “Methods of modulating IL-6” (SOLBEC PHARMACEUTICALS CO., LTD., priority 2003, published 2005).
Values after ≈ are worked out from the molar mass of the structure shown.

Tests used:
[1] = test system: HT29 human colon adenocarcinoma; assay: MTT assay, HT29; format: cell-based; conditions: HT-29, 72 hours, read-out: IC50 (concentration required to reduce cell viability by 50%)
Text: (§1) A panel of five human malignant mesothelioma cell lines, established from the pleural fluid of patients with the disease. These cell lines, designed Ju77, Lo68, No36, One58 and Sty51 have been previously described (1). None of the patients from whom the cell lines were derived had been exposed to chemotherapeutic agents. Two cell lines were purchased from ATCC (Rockville, Md.) for use as controls: HT29—a human colon adenocarcinoma (ATCC HTB38) and A549—a human lung adenocarcinoma (ATCC CCL185). These cell lines are representative of tumours that are generally drug resistant but have shown some responses to newer chemotherapy agents.
(§2) Cells were maintained in RPMI-1640 containing 5% fetal calf serum (Life Technologies Inc., Melbourne), 5×10^−5 M 2-mercaptoethanol, 20 mM HEPES buffer, 100 IU benzylpenicillin/ml (CSL, Perth) and 50 μg gentamicin/ml (David Bull Laboratories, Melbourne), in water saturated air containing 5% CO2 at 37° C. This growth medium will henceforth be called RF-5. All cells were checked at 3 monthly intervals for Mycoplasma and remained negative to testing.
(§3) Drug sensitivities for each cell line were determined by use of the MTT (Sigma-Aldrich, NSW) assay modified from the method described by Mossman (2). […] Optical densities were determined using a SpectraMax 250 plate reader (Molecular Devices) at 570 nm. […]

[2] = test system: A549 human lung adenocarcinoma; assay: MTT assay, A549; format: cell-based; conditions: 72 hours, read-out: IC50 (concentration required to reduce cell viability by 50%)
Text: as §1, §2, §3

[3] = test system: mesothelioma and control cells; assay: MTT assay, drug toxicity in mesothelioma and control cells; format: cell-based, human; conditions: all cell lines
Text: as §1, §2, §3

IL-6 [4] = assay: IL-6 ELISA of media from treated mesothelioma and control cells; format: cell-based, human; conditions: for surge in IL-6 production: as the concentration of drug approached its IC50 value
Procedure: The IL-6 assay was performed using a human IL-6 ELISA kit (eBioscience, USA) according to the manufacturers protocol. Briefly ninety six well plates were incubated at room temperature overnight with 100 μL per well of monoclonal antihuman IL-6 antibody in coating buffer (0.1M Na2CO3/NaHCO3, pH 9.6). The plate was washed five times with PBS and then 200 μL of blocking buffer added to each well and incubated for one hour at room temperature. The plate was then washed five times in PBS with 0.005% Tween 20 (Sigma-Aldrich, NSW). 100 μL of each sample to be assayed was added to each well and also IL-6 standard solutions ranging from 0.6-400 pg/ml were used to generate a standard curve.
After a one hour incubation, the plate was washed as above and 100 μL of biotinylated-IL-6 antibody solution added for a further hour. Following further washes, 100 μL of streptavidin-HRP conjugate solution was added for 30 minutes and the plates washed. 100 μL of ABTS solution was added and following incubation for 30 minutes at 37° C., the plate was read at 405 nm on a SpectraMax 250 plate reader (Molecular Devices) and the concentration of IL-6 for each sample calculated from the standard curve.
Samples for use in the ELISA were prepared by seeding of cells in 96 well plates with or without chemotherapy as described previously. As in the previous experiments chemotherapy was added 24 hours after cell seeding. For cell lysis experiments 300 μl of distilled water was added to each well and lysis of cells was confirmed by visual inspection. Media from these assays was removed at the appropriate time and stored at −20° C. until the ELISA was performed. The concentration of IL-6 for each cell line represents the mean value generated from three separate experiments. The results from chemotherapy effects on IL-6 production are representative of two or more experiments.

[5] = test system: five human malignant mesothelioma cell lines (Ju77, Lo68, No36, One58, Sty51); assay: MTT assay, five mesothelioma cell lines; format: cell-based; conditions: range over five mesothelioma cell lines, 72 hours, read-out: IC50 (concentration required to reduce cell viability by 50%)
Text: as §1, §2, §3

[6] = test system: NO36 mesothelioma cell line; assay: MTT assay, NO36; format: cell-based, human
Text: as §1, §2, §3

IL-6 [7] = conditions: mesothelioma cells, concentrations producing a 5-30% reduction in relative cell growth; reference 3; cited from earlier work

Question: For CC(=O)O[C@@]12CO[C@@H]1C[C@H](O)[C@@]1(C)C(=O)[C@H](O)C3=C(C)[C@@H](OC(=O)[C@H](O)[C@@H](NC(=O)OC(C)(C)C)c4ccccc4)C[C@@](O)([C@@H](OC(=O)c4ccccc4)[C@H]21)C3(C)C [docetaxel, Docetaxel], which IC50 [1] is on record?
Answer: 2 ng/mL (≈ 2.48 nM)

Question: What about the IC50 [2] of the same compound?
Answer: 5.4 ng/mL (≈ 6.68 nM)

Question: What about the “shape of dose response curve” value [3] of the same compound?
Answer: plateau effect is clear for all cell lines

Question: What about the “surge in IL-6 production” value (IL-6 [4]) of the same compound?
Answer: a surge in IL-6 production was measured

Question: What about the “IL-6 production compared to untreated cells” value (IL-6 [4]; concentrations below the IC50) of the same compound?
Answer: did not effect IL-6 production

Question: What about the IC50 [5] of the same compound?
Answer: 4.7 to 7.6 ng/mL (≈ 5.82 to 9.41 nM)

Question: For Nc1ccn([C@@H]2O[C@H](CO)[C@@H](O)C2(F)F)c(=O)n1 [gemcitabine], which IC50 [1] is on record?
Answer: 6.7 ng/mL (≈ 25.5 nM)

Question: What about the IC50 [2] of the same compound?
Answer: 1.75 ng/mL (≈ 6.65 nM)

Question: And the “surge in IL-6 production” value (IL-6 [4])?
Answer: a surge in IL-6 production was measured

Question: What about the IC50 [5] of the same compound?
Answer: 0.8 to 5 ng/mL (≈ 3.04 to 19 nM)

Question: What about the viability at 0.01 µg/mL ([6]; Homo sapiens, NO36 cells at 10 ng/ml) of the same compound?
Answer: 50%

Question: And the “concentration at which cell death reaches a plateau” value ([6]; NO36 cells, MTT)?
Answer: approximately 3 ng/ml

Question: What about the “change in IL-6 concentration relative to untreated cells” value (IL-6 [7]) of the same compound?
Answer: decrease in the IL-6 concentration by up to one half
